Inconclusive results and toxic doses are left out. Cut-off read from the data, not from the text of the source: active = T/C of 150% or more; inactive = T/C below 125%.
Tested on: L1210 leukemia ip in BDF1 mice, survival T/C
Assay: NCI In Vivo Anticancer Drug Screen. Data for tumor model L1210 Leukemia (intraperitoneal) in B6D2F1 (BDF1) mice
Settings: endpoint: mean survival time, higher = longer survival
Outline: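 In this screen, tumor-bearing mice given compound are compared to those given vehicle, and their survival values are reported as a treated-to-control quotient.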

Measured: T/C

CCC1C(=O)OC2(CO)C(=O)N(C)CCC12 (centres undefined)
inactive: dose: 15.6 mg/kg/injection, schedule: Q01DX001 (ip), vehicle: saline 103 % of control | dose: 31.3 mg/kg/injection, schedule: Q01DX001 (ip), vehicle: saline 103 % of control | dose: 62.5 mg/kg/injection, schedule: Q01DX001 (ip), vehicle: saline 91 % of control | dose: 125.0 mg/kg/injection, schedule: Q01DX001 (ip), vehicle: saline 94 % of control

CN(C)c1ncnc2c1ncn2C1CCCO1 (centres undefined)
inactive: dose: 25.0 mg/kg/injection, schedule: Q01DX Z (ip), vehicle: methylcellulose (MC) 97 % of control | dose: 50.0 mg/kg/injection, schedule: Q01DX Z (ip), vehicle: methylcellulose (MC) 92 % of control

CCC12CCC(Br)C(C1)OC2=O (centres undefined)
inactive: dose: 100.0 mg/kg/injection, schedule: Q04DX003 (ip), vehicle: saline with Tween-80 98 % of control | dose: 200.0 mg/kg/injection, schedule: Q04DX003 (ip), vehicle: saline with Tween-80 91 % of control | dose: 400.0 mg/kg/injection, schedule: Q04DX003 (ip), vehicle: saline with Tween-80 93 % of control

From PubChem BioAssay AID248 (DTP/NCI, 2004)
